Experimental data reported in patent publication US20230416802A1, “SPECIFIC SUBSTRATES AND PRODUCTS OF HSD17B13 AS MARKERS OF LIVER DISEASE AND BIOMARKERS FOR LIVER DISEASE TREATMENT” (INIPHARM, INC., priority 2020, published 2023).

Target: T1, HSD17B13 enzyme (Homo sapiens, UniProt Q7Z5P4)
T1 construct: His; made in house; host or cells: E. coli
T1 sequence (Q7Z5P4 20-300): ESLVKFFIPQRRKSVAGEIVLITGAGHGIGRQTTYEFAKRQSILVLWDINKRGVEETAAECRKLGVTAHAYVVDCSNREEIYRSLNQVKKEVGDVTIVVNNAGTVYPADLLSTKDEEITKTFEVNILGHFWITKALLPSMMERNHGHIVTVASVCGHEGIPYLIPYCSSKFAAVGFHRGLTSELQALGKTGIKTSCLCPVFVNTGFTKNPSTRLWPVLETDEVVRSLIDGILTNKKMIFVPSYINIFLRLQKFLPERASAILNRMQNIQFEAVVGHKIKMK
Assay: HSD17B13 activity assay using NADH fluorescence
Format: biochemical
Settings: substrate at 3.3 μM; activity relative to positive control LTB3
Experimental: A fluorescence based HSD17B13 activity assay was used to monitor the fluorescence of NADH, which is generated from NAD+ during the dehydrogenation of the substrate LTB3 or other substrates. Reactions were performed in a 384-well plates (Greiner; #655076) in a 20 μl reaction volume containing the following reagents (final concentrations): 3 mM NAD^+ (Sigma; #N0623); 125 nM HSD17B13 enzyme (in-house E. coli expressed His-tagged, purified, soluble protein); 1 M potassium phosphate buffer, pH 7.4; 1% DMSO; and a range of substrate concentrations ([…]). Reactions proceeded for […] at 26.5° C. Generation of NADH was measured as the fluorescence signal (Excitation at 340 nm and Emission at 445 nm) at 3 hours minus the baseline fluorescence at t=0. Fluorescence signals in the absence of added substrate (negative control values), were subtracted from all values so that the results reflected substrate-dependent production of NADH. NADH standards were included to allow the conversion of relative fluorescence units into rates of enzyme activity. Ten concentrations of substrate were tested (in the range of 30 mM-2.5 nM), and two independent assessments were performed at each concentration. Activity was compared to the positive control, LTB3, at a concentration of […]. Results are reported as the ratio: [Activity of compound at 30 mM]/[Activity of LTB3 at […]].

Relative oxidation (%) at 3.3 μM	Compound
35 (AT 3.3 μM) %	CCCCCCCCCCCC(=O)SCCNC(=O)CCNC(=O)[C@H](O)C(C)(C)COP(=O)(O)OP(=O)(O)OC[C@H]1O[C@@H](n2cnc3c(N)ncnc32)[C@H](O)[C@@H]1OP(=O)(O)O [Lauryl coenzyme A, S-[2-[3-[[(2R)-4-[[[(2R,3S,4R,5R)-5-(6-aminopurin-9-yl)-4-hydroxy-3-phosphonooxyoxolan-2-yl]methoxy-hydroxyphosphoryl]oxy-hydroxyphosphoryl]oxy-2-hydroxy-3,3-dimethylbutanoyl]amino]propanoylamino]ethyl] dodecanethioate]

Same assay, conditions: substrate at 10 μM; activity relative to positive control LTB3

Relative oxidation (%) at 10 μM	Compound
29 (at 10 μM) %	CC(C(=O)O)C(=O)SCCNC(=O)CCNC(=O)[C@H](O)C(C)(C)COP(=O)(O)OP(=O)(O)OC[C@H]1O[C@@H](n2cnc3c(N)ncnc32)[C@H](O)[C@@H]1OP(=O)(O)O (stereo partly drawn) [Methyl malonyl coenzyme A, (9R)-1-[(2R,3S,4R,5R)-5-(6-Amino-9H-purin-9-yl)-4-hydroxy-3-(phosphonooxy)oxolan-2-yl]-3,5,9-trihydroxy-8,8,20-trimethyl-3,5,10,14,19-pentaoxo-2,4,6-trioxa-18-thia-11,15-diaza-3λ5,5λ5-diphosphahenicosan-21-oic acid]

Same assay, conditions: substrate at 30 μM; activity relative to positive control LTB3; NADH production by purified HSD17B13

Relative oxidation at 30 μM (%)	Compound
45	CC[C@@H](O)/C=C/C=C\C[C@@H](O)/C=C/C=C/C=C\[C@@H](O)CCCC(=O)O [Resolvin E1, 5S,12R,18R-trihydroxy-6Z,8E,10E,14Z,16E-eicosapentaenoic acid]
105	CC/C=C\C[C@H](O)/C=C/C=C\C=C\[C@@H](O)C/C=C\C/C=C\CCC(=O)O [Protectin DX, 10(S),17(S)-dihydroxy-4Z,7Z,11E,13Z,15E,19Z-docosahexaenoic acid]
100	CCCCCCCC[C@@H](O)/C=C/C=C\C=C\[C@@H](O)CCCC(=O)O [Leukotriene B3 (LTB3), 5S,12R-dihydroxy-6Z,8E,10E-eicosatrienoic acid]
60	CCCCC/C=C\C[C@@H](O)/C=C/C=C\C/C=C\CCCC(=O)O [12(R) HETE]
46	CCCCC[C@@H](O)/C=C/C=C\CCCCCCCCCC(=O)O [15 (R) HEDE]
135	CC/C=C\C[C@H](O)/C=C/C=C\C=C\C=C\[C@@H](O)[C@@H](O)C/C=C\CCC(=O)O [Resolvin D1, 7S,8R,17S-trihydroxy-4Z,9E,11E,13Z,15E,19Z-docosahexaenoic acid]
22	CC/C=C\C/C=C\C[C@H](O)\C=C/C=C/C=C/[C@H](O)C/C=C\CCC(=O)O [Maresin 1, 7R,14S-dihydroxy-4Z,8E,10E,12Z,16Z,19Z-docosahexaenoic acid]
